From US20240239790A1, “7-Morpholino-1,6-Naphthyridin-5-yl Derivatives and Pharmaceutical Compositions Thereof Useful as DNA-PK Inhibitor” (adMare Therapeutics Society, priority 2021, published 2024)
Like-named read-outs stand apart in the source and are kept apart here.

Tests used:
[1] = biological target: T1, DNA-PK phosphorylation at Serine 2056 (Homo sapiens, UniProt P78527); assay: Cellular Assay for Inhibition of DNA-PK Phosphorylation at Serine 2056 in FaDu cells (sandwich ELISA, neocarzinostatin); assay type: cell-based; conditions: pSer2056 DNA-PK, neocarzinostatin 1 μg/mL, Table 1
T1 construct: FaDu cells were purchased from ATCC; host or cells: FaDu
Method in brief: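 FaDu cells pre-treated with compound (0.3% DMSO) for 1 h, then neocarzinostatin 1 μg/mL final added for 2 h to induce DSBs. Protein-normalised lysates read by sandwich ELISA for total and pSer2056 DNA-PK; % inhibition normalised between DMSO and NCS controls, IC50 from variable-slope log(inhibitor) fit.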

[2] = Microsomal Stability Assay, mouse liver microsomes; assay type: in vitro ADME
Experimental: (§1) Samples were then mixed and centrifuged. Supernatants were used for HPLC-MS/MS analysis. […] Peak areas corresponding to the test compound were recorded.

[3] = Microsomal Stability Assay, human liver microsomes; assay type: in vitro ADME
Experimental: as §1

[4] = Pharmacokinetic study in mice (IV and PO), plasma; assay type: in vivo, mouse; conditions: for Rsq: Mouse Plasma, fit of NCA; for AUC(0-t) / Cmax at 5 min / half-life / AUC(0-inf): female, C57BL/6; for AUC(0-t) / Cmax at 5 min / half-life / AUC(0-inf) / AUC_% Extrap_obs / Cl_obs / Vz_obs: mouse plasma; for AUC(0-inf): read-out: AUCINF_obs
Experimental: Pharmacokinetic analysis of compounds was conducted following bolus intravenous (IV) or bolus oral (PO) gavage in mice. Female mice (C57BL/6) in the 17-26 g range were weighed, and then administered an individually prescribed dose volume based on body weight of formulated compound via the intravenous (IV; tail vein) or oral gavage (PO) route (IV 5 mL/kg; PO 10 mL/kg). At selected timepoints post administration, blood was collected into vials with anticoagulant, processed for plasma by centrifugation, and then kept frozen ([…]) until analysis.
The in-vivo study plasma samples were analyzed using Ultra Performance Liquid Chromatography (UPLC) with tandem mass spectrometry (MS/MS) detection in multiple reaction monitoring (MRM) mode. A generic bioanalytical method involving plasma sample extraction and cleanup by protein precipitation with acetonitrile was used followed by UPLC-MS/MS analysis.
A brief example of a generic bioanalytical UPLC-MS/MS method used for analysis of compounds in the in-vivo study plasma samples is as follows. Plasma samples were spiked with internal standard prior to extraction and cleanup by protein precipitation with ice cold acetonitrile containing 0.1% (v/v) ammonium hydroxide at a ratio of 3:1 (solvent:plasma) and centrifuged at 18213 rcf for 15 minutes at 4° C. to pellet precipitates. Aliquots of supernatants were transferred to a 96-well plate and evaporated to dryness at 40° C. under a stream of nitrogen gas. Samples were reconstituted in 50:50 acetonitrile/10 mM ammonium acetate buffer pH 8, mixed thoroughly and analyzed using Ultra Performance Liquid Chromatography (UPLC) with tandem mass spectrometry (MS/MS) detection in multiple reaction monitoring (MRM) mode. Matrix-matched calibration standards and quality control (QC) samples were prepared in naïve C57Bl/6 mouse plasma. The UPLC column used was Waters Acquity UPLC BEH C18 1.7 um, 2.1 mm×50 mm (with guard column). The UPLC mobile phase consisted of: Mobile phase A: 10 mM ammonium acetate in Water pH 8, and Mobile phase B: Acetonitrile. Separation was accomplished with a linear gradient of 5% mobile phase B to 95% mobile phase B in 2 min, and a flow rate of 0.35 mL/min. The MS/MS data acquisition was accomplished using 3 MRM Transitions in ESI+ mode. Parent ion mass 508.37 m/z-to-Daughter ions (m/z) 117.05, 232.13 and 270.22. The quantitation of concentrations in test samples was achieved by matrix-matched calibration with normalization using an internal standard. Data acquisition and analysis were performed using Waters MassLynx software with TargetLynx application manager.
Estimation of PK parameters was performed using independent noncompartmental model method by PHOENIX WinNonlin software.

With `CN(C)C(=O)Cn1c(=O)n(C2CCOCC2)c2nc(N[C@H]3CC[C@@H](Oc4nc(N5CCOCC5)cc5ncccc45)CC3)ncc21` [Compound 97, N,N-Dimethyl-2-(2-(((1s,4s)-4-((7-morpholino-1,6-naphthyridin-5-yl)oxy)cyclohexyl)amino)-8-oxo-9-(tetrahydro-2H-pyran-4-yl)-8,9-dihydro-7H-purin-7-yl)acetamide] the IC50 [1] was under 100 nM, the microsomal CLint at 0.1 uM ([2]; male, CD-1, pH 7.4, mouse liver microsomes 0.1 mg/mL, 0.1 uM compound) was under 116 µL/min/mg and the “Microsomal Stability Mouse % rem. 60 min” value ([2]; mouse liver microsomes, 60 min) was “F (% remaining = 25-50%)”. For the same molecule, the microsomal CLint at 0.1 uM ([3]; both sexes, pH 7.4, human liver microsomes 0.1 mg/mL, 0.1 uM compound) was over 116 µL/min/mg, the “Microsomal Stability Human % rem. 60 min” value ([3]; human liver microsomes, 60 min) was “E (% remaining = 0-25%)” and the Rsq ([4]; IV, 3 mg/kg) was 0.98. The Rsq ([4]; PO, 10 mg/kg) was 0.98, the F ([4]; Mouse, PO 10 mg/kg vs IV 3 mg/kg) was 47% and the AUC(0-t) ([4]; IV, 3 mg/kg) was 4340 ng·h/mL. It also gave a Cmax at 5 min ([4]; IV, 3 mg/kg) of 4860 ng/mL, a half-life ([4]; IV, 3 mg/kg) of 2.21 h and an AUC(0-inf) ([4]; IV, 3 mg/kg) of 4380 ng·h/mL. The AUC(0-t) ([4]; PO, 10 mg/kg) was 6770 ng·h/mL, the Cmax at 5 min ([4]; PO, 10 mg/kg) was 2520 ng/mL and the half-life ([4]; PO, 10 mg/kg) was 2.07 h. The AUC(0-inf) ([4]; PO, 10 mg/kg) was 6770 ng·h/mL, the “AUC_% Extrap_obs” value ([4]; IV, 3 mg/kg) was 0.77% and the Cl_obs ([4]; IV, 3 mg/kg) was 11.43 mL/min/kg. The Vz_obs ([4]; IV, 3 mg/kg) was 2.18741 L/kg, the “AUC_% Extrap_obs” value ([4]; PO, 10 mg/kg) was 0.03% and the Cl_obs ([4]; PO, 10 mg/kg) was 24.6043 mL/min/kg. For the same molecule, the Vz_obs ([4]; PO, 10 mg/kg) was 4.41523 L/kg.
